Reference: patent publication US11648258B2, “Method and compounds for inhibiting the MCM complex and their application in cancer treatment” (priority 2012, dated 2023)

Experiments:
hMcm2 and hMcm6 [1] = assay: Immunostaining / GFP fluorescence microscopy of MCM nuclear localization in HeLa cells; assay type: cell-based, human; details: 36 hrs treatment starting 4 hrs post-transfection
Protocol: (§1) To study the effect of the anticancer compounds on the interaction between hMcm2 and hMcm6 in the cells, immunostaining was performed to detect the sub-cellular localization of the proteins. HeLa cells grown on cover slips (coated with poly-D-lysine) with or without drug treatment were fixed with 4% PFA in PBS at room temperature for 20 min. After permeabilization with 0.1% Triton X-100 and 1% BSA in PBS for 20 min, cells were blocked with 1% BSA and then incubated with rabbit anti-hMcm6 (Santa Cruz; 1:500) and mouse anti-hMcm2 (Becton Dickinson; 1:500) primary antibodies at room temperature for 1 hr. Cells were then incubated with Alexa Fluor 488-conjugated donkey […] antibody and Alexa Fluor 594-conjugated donkey anti-mouse antibody (Invitrogen; 1:500) at room temperature for 1 hr. Three washes with PBS were performed after each round of antibody incubation. Cells were then incubated with Hochest 33852 (Sigma Chemical Company; 1 μg/ml) at room temperature for 15 min for nuclear staining and washed with PBS three times again. At last, cells were mounted and observed under the fluorescence microscope (Nikon TE2000E).
(§2) Because pair-wise interactions among the MCM subunits are required for the MCM heterohexameric ring structure, which is essential for their import into the nucleus, disruption of the interaction between hMcm2 and hMcm6 should destroy the hexamer and result in failure of nuclear localization of MCM proteins. To test this, we employed both indirect fluorescence microscopy (immunostaining) using antibodies against the endogenous MCM proteins and direct fluorescence microscopy after transfection with plasmids to express hMcm2-GFP and hMcm6-GFP in the cells.
(§3) In immunostaining, HeLa cells were treated by 17beta-Deacetyltanghinin for 24 hrs, and the endogenous hMcm2 and hMcm6 were detected by specific antibodies against these proteins. […] In direct fluorescence microscopy, HeLa cells expressing hMcm2-GFP and hMcm6-GFP were treated with 17beta-Deacetyltanghinin for 36 hrs starting at 4 hrs post-transfection with the plasmids expressing hMcm2-GFP and hMcm6-GFP.

hMcm2 and hMcm6 [2] = target: T1, hMcm2 and hMcm6 (Homo sapiens, UniProt P49736+Q14566); assay: as above; assay type: cell-based; details: 24 hrs
T1 construct: the endogenous hMcm2 and hMcm6 were detected by specific antibodies against these proteins; endogenous in cells; host or cells: HeLa
Protocol: as §1, §2, §3

[3] = system: L-02 cells (normal human liver cells); assay: in vitro; details: L-02, 48 hrs
Protocol: For testing the anti-proliferation activity of the compounds in human cell lines and calculation of IC50, cancer cells including HepG2, HeLa and Hep3B (4×10^5 cells/well) and normal L-02 cells (5×10^5 cells/well) were respectively seeded in 96-well plates in 100 μl of culture medium and incubated for about 12 hrs at 37° C. The cells were treated with two-fold serial dilutions of the drugs for 48 hrs. Medium was removed and 100 μl of culture medium containing 1 μM WST-1 (water soluble tetrazolium-1) were added to each well. The cells were incubated for 2 hrs, and absorbance at 405 nm (reference at 630 nm) was then measured. To construct the standard curve of the relationship between cell number and absorbance at OD405, serial dilutions of cells with known cell numbers were seeded and incubated for six hrs before being measured by the WST-1 assay. The cell viability was expressed as the ratio of the number of live cells treated with a candidate compound versus that of the DMSO-treated cells.
A pair of human cell lines, L-02 (normal liver cells) and HepG2 (a liver cancer cell line) was treated with 17beta-Deacetyltanghinin for 48 hrs. […] In FIG. 2B-H, quantification of viable cell numbers was carried out using WST-1 (Water-soluble tetrazolium-1) assay.
To further test 17beta-Deacetyltanghinin and to determine the IC50 values, besides L-02 and HepG2, Hep3B (another liver cancer cell line which is p53-negative), HeLa (cervical cancer cell line), HK1 and C666-1 (nasopharyngeal carcinoma) cells and a hTert-immortalized normal nasopharyngeal cell line (NP460) were treated by 17beta-Deacetyltanghinin for 48 hrs, and the relative cell vabilities were determined by WST-1 assay (FIG. 2B, C).

HeLa cells = assay: BrdU incorporation assay (DNA replication) in HeLa cells; assay type: cell-based, human
Protocol: Hela cells grown on cover slips coated with poly-D-lysine were incubated with 50 μM BrdU (Sigma) for 1 hr at 37° C. after 24 hrs of 17beta-Deacetyltanghinin treatment. Cells were then fixed in with 4% of PFA in PBS at room temperature for 20 min, permeabilized with 0.1% Triton X-100 and 1% BSA in PBS for 20 min, and then incubated sequentially with anti-BrdU (Sigma Chemical Company; 1:500) and anti-mouse IgG-FITC conjugates (Sigma Chemical Company; 1:500), each for 1 hr at 37° C., with three washes in PBS after each antibody incubation. BrdU signal was observed under the fluorescence microscope (Nikon TE2000E).
As 17beta-Deacetyltanghinin disrupts the interactions between hMcm2 and hMcm6 and inhibits the association of MCM proteins with chromatin, 17beta-Deacetyltanghinin should block DNA replication. To confirm this, we treated HeLa cells with 17beta-Deacetyltanghinin for 24 hrs and then labeled them with BrdU for 1 hr. Incorporated BrdU in the cellular DNA was detected by an anti-BrdU antibody followed by FITC-anti-mouse secondary antibodies which was visualized under the fluorescence microscope (FIG. 6A). DAPI was used to stain the nuclei (FIG. 6A), and the percentage of BrdU positive cells was quantified (FIG. 6B). […]

T1 sequence (P49736 2-904): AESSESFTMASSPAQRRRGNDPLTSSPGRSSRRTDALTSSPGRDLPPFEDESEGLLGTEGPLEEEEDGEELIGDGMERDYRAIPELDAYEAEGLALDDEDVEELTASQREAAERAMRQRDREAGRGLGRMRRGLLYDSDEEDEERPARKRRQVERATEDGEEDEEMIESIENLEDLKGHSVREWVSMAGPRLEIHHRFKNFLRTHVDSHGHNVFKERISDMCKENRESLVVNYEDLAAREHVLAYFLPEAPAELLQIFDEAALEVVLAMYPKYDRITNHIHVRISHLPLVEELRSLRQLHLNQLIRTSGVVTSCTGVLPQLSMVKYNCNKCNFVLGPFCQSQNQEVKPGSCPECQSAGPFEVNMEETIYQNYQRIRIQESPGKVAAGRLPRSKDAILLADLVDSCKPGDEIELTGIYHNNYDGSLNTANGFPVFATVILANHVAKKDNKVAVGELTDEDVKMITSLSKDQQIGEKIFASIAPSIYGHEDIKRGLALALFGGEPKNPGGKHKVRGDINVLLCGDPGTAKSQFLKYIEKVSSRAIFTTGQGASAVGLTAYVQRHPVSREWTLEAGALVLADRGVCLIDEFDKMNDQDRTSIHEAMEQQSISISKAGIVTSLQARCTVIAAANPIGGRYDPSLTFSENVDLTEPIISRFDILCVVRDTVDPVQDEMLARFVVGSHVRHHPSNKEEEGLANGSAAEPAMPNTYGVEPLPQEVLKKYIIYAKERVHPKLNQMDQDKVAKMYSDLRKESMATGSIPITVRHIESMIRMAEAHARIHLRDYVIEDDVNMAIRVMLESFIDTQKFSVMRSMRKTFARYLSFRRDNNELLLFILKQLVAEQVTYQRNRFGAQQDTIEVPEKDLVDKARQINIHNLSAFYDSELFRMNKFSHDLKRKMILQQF
T1 sequence (Q14566 whole entry): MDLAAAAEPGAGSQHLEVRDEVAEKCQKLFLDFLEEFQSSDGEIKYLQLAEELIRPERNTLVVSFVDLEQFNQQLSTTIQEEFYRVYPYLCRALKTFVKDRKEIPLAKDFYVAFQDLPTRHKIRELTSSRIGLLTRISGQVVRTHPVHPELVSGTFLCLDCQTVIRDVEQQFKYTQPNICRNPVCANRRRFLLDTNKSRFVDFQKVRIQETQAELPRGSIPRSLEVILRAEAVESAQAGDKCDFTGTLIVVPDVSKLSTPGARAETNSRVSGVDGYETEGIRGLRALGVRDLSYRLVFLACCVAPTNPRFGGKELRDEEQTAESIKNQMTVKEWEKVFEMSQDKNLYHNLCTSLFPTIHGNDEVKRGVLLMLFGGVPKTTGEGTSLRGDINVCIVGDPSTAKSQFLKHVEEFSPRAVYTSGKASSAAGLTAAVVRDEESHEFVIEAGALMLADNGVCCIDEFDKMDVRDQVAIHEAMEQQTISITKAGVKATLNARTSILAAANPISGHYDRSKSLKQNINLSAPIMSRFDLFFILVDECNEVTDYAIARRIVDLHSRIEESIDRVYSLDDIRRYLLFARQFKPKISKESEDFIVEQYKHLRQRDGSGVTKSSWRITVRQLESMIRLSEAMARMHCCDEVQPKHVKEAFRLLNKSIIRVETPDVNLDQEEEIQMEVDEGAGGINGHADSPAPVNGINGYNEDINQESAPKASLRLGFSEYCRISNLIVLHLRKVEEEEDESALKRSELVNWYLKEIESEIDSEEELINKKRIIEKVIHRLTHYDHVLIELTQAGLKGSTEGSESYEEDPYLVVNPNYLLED

## COC1C(O)[C@H](O[C@H]2CC[C@]3(C)C4CC[C@]5(C)[C@@H](C6=CC(=O)OC6)CC[C@]5(O)[C@@]45O[C@H]5C[C@@H]3C2)OC(C)[C@@H]1O (stereo partly drawn) [17beta-Deacetyltanghinin, 3β-O-(3-O-methyl-6-deoxy-α-L-glucopyranosyl)-7β,8β-epoxy-14β-hydroxy-card-20(22)-enolide]
hMcm2 and hMcm6 [1]
  localization of expressed hMcm2-GFP and hMcm6-GFP (direct fluorescence): some of the expressed hMcm2-GFP and hMcm6-GFP located in the cytoplasm
hMcm2 and hMcm6 [2]
  nuclear localization of endogenous hMcm2 and hMcm6 (immunostaining): impaired
[3]
  activity towards normal cells, direct microscopy of cell density and morphology: much lower activity
HeLa cells; HeLa cells arrested with Mimosine, 12 hrs pre-treatment, released in presence of compound, controls ~100%
  BrdU positive cells: ~40%
HeLa cells; asynchronous HeLa cells, 24 hrs, above 0.2 ∝g/ml
  BrdU signal (DNA replication): almost no BrdU signal
